Structures are written as SMILES. Activity calls are given as the source filed them. No cut-off for these calls is given here.

For this assay, the system named is Radical scavenging activity. Nature of the assay: Antioxidant activity assessed as DPPH radical scavenging activity. It is filed as functional. For orientation: DPPH is a stable violet radical that fades when it is reduced.
In the case of `C=CC(C)(C)c1c(O)cc(O)c2c(=O)c3ccc(O)c(O)c3oc12`, the result was Active. As for `C=C(c1c(OC)cc(O)c2c(=O)c3ccc(O)c(O)c3oc12)C(C)C`, the entry is “Active”; as for `COc1ccc(O)c(C(C)(C)C)c1.COc1ccc(O)cc1C(C)(C)C`, “Active”.

Values taken from ChEMBL document CHEMBL1151187, “Antioxidant xanthones from Garcinia vieillardii” (J Nat Prod, 2004).
